{
  "source": "patent US20240051938A1",
  "about": "“SELECTIVE BRD4-DEGRADER MOLECULES” (Regents of the University of Minnesota, priority 2022, published 2024)",
  "key": {"BRD2 [1]": {"target": "T1, BRD2 (Homo sapiens, UniProt P25440)", "T1 sequence (P25440 whole entry)": "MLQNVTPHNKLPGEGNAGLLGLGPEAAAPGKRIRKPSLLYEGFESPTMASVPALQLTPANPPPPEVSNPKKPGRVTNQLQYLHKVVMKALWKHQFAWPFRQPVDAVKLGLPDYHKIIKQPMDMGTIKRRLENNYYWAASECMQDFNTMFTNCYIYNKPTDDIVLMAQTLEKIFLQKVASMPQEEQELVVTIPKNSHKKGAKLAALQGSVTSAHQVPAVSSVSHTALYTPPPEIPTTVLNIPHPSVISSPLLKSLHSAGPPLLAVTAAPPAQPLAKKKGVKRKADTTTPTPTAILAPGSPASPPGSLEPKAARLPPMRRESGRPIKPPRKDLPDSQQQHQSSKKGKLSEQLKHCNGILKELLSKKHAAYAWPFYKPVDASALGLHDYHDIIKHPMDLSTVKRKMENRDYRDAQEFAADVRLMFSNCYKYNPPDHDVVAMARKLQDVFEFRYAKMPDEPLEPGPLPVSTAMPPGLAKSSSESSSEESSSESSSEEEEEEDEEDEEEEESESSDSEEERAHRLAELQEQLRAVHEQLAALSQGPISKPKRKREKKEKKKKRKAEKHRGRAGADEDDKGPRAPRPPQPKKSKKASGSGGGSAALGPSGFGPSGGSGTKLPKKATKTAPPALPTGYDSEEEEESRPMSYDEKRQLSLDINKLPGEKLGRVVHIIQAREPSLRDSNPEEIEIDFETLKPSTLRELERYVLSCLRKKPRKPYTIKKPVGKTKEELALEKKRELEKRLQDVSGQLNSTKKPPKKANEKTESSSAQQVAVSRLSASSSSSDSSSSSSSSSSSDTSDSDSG", "details": "cited from earlier work"}, "BRD3 [2]": {"target": "T2, BRD3 (Homo sapiens, UniProt Q15059)", "T2 sequence (Q15059 whole entry)": "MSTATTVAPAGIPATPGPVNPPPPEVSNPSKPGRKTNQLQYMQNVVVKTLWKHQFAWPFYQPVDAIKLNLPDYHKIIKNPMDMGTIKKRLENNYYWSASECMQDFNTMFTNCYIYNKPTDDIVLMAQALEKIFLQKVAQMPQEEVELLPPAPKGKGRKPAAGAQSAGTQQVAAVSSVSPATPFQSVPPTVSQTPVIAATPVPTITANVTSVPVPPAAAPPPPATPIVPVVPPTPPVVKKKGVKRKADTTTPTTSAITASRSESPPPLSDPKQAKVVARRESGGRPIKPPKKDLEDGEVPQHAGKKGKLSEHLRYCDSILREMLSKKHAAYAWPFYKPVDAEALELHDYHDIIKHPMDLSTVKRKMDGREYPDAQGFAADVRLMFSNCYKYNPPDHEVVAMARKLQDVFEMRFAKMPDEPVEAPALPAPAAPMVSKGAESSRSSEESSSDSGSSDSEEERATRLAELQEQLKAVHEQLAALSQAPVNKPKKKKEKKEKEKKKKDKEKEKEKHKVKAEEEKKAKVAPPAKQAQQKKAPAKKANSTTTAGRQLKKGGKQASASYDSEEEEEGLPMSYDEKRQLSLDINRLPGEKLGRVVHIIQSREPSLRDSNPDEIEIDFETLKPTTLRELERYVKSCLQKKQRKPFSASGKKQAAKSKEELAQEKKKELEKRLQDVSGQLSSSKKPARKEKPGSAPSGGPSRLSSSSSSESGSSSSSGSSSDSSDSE", "details": "cited from earlier work"}, "BRD4 [3]": {"target": "T3, BRD4 (Homo sapiens, UniProt O60885)", "details": "BRD4 degradation, 6 hours, N = 1; for DC50: read-out: HEK293 (DC50)"}, "BRD4 [4]": {"target": "T3, BRD4", "test": "cell-based", "details": "HEK293, read-out: HEK293 (Dmax)"}, "BRD4 [5]": {"target": "T3, BRD4", "test": "Rescue of dBRD4-BD1-induced BRD4 degradation in MM.1S cells (competition experiments)", "assay_type": "cell-based", "set-up": "endogenous in cells", "details": "competition with dBRD4-BD1"}, "9xHis-BRD4-BD1": {"target": "T4, 9xHis-BRD4-BD1 (Homo sapiens, UniProt O60885)", "T4 construct": "30 nM for His9-tagged BRD4-BD1 bromodomain and 50 nM for the biotinylated peptide were used; made in house", "test": "AlphaScreen binding assay with His9-tagged BRD4-BD1 (1% DMSO)", "details": "1% v/v DMSO; mean of three independent trials in duplicate; read-out: BRD4-BD1 IC50 (apparent binding)"}, "BRD2 [6]": {"target": "T1, BRD2", "test": "Western blot BRD2 levels in MM.1S cells", "assay_type": "cell-based", "method": "(§1) FIG. 4A-4D: Degradation of BRD4 in MM.1S cells. (A) Representative blots for degradation of BRD4 after 24-hour treatment. (B) Quantified densitometry for three biological replicates of blots from (A). (C) Time-course study of BRD4 degradation by dBRD4-BD1. (D) Rescue of BRD4 degradation using pan-BD1, proteasome and neddylation inhibitors, but not pan-BD2 inhibitor, iBET-BD2.\n(§2) Western Blotting: MM.1S cells were seeded in 12-well plates at a density of 4×10^6 cells per well and treated with compounds for indicated times. Cells were transferred to 2 mL microcentrifuge tubes and harvested by low-speed centrifugation at 500×g. for 5 minutes. The well was rinsed, and the cell pellet washed twice with ice-cold PBS with centrifuging. The supernatant was carefully decanted, and the cell pellet was resuspended for lysis in 100 μL of RIPA buffer (ThermoFisher Scientific) supplemented with 1× cOmplete Mini Protease (Roche) and stored on ice for 10 minutes. After high-speed centrifugation (10 min at 10,000 X g.), protein concentrations were determined by the BCA assay (ThermoFisher Scientific) and normalized by total protein content."}, "BRD3 [7]": {"target": "T2, BRD3", "test": "Western blot BRD3 levels in MM.1S cells", "assay_type": "cell-based", "method": "as §1, §2"}, "p38a kinase": {"target": "T5, p38a kinase (Homo sapiens, UniProt Q16539)", "T5 construct": "endogenous in cells; host or cells: MM.1S", "T5 sequence (Q16539 whole entry)": "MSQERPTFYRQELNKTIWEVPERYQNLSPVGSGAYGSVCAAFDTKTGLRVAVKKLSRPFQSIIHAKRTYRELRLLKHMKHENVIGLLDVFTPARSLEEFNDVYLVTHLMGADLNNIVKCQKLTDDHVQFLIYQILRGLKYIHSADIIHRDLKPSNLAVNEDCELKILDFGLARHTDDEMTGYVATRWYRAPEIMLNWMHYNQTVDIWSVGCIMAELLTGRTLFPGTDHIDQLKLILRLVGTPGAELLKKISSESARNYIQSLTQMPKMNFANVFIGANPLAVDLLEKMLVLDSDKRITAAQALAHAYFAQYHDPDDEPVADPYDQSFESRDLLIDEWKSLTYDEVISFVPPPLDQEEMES", "test": "Western blot p38a levels in MM.1S cells", "assay_type": "cell-based", "details": "24-hour time-point or time-course study at 5 μM", "method": "as §1, §2"}, "cMyc": {"test_system": "cMyc", "test": "Western blot cMyc expression in MM.1S cells", "assay_type": "cell-based", "details": "compared with previously reported BRD4 degraders", "method": "as §2"}, "BRD4 [8]": {"target": "BRD4 (Homo sapiens, UniProt O60885+Q96SW2)", "sequence (Q96SW2 whole entry, one chain of several)": "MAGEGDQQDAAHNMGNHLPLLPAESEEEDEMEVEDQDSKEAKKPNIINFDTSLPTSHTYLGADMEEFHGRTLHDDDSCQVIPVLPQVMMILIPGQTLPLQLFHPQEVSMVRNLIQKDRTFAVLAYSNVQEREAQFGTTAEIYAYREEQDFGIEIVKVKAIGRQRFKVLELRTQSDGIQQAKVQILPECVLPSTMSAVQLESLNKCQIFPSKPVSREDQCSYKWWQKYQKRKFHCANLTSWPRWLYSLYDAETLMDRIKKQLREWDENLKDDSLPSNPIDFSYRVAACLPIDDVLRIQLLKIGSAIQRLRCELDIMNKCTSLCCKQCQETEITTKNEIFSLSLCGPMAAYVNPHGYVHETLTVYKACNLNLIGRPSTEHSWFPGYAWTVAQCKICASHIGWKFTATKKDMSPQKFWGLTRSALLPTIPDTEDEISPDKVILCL", "test": "TR-FRET ternary-complex formation", "assay_type": "biochemical"}, "MM.1S cells": {"test_system": "MM.1S cells", "test": "72 hour Alamar blue cytotoxicity assay of MM.1S cells", "assay_type": "cell-based", "method": "FIG. 5: 72 hour Alamar blue cytotoxicity assay of MM.1S cells with compounds. Data reported as mean±SD of three independent trials of three replicates each.\nViability Assays: MM. 1 S cells were seeded in 96-well plates at approximately 20 000 cells per well (0.05 mL) and dosed with increasing compound concentrations in the presence of DMSO with three technical replicates per concentration. After incubation for 69 hours at 37° C., 10 μL of the Alamar Blue reagent (Invitrogen) was added to each well and the plates were incubated for 3 hours at 37° C. Fluorescence was determined using a Synergy plate reader (BioTek, Ex.: 560 nm, Em.: 590 nm) and dose-response data were normalized to untreated and blank wells containing 0.05% DMSO in cell culture media. Data analysis was performed using GraphPad Prism."}, "BRD4 [9]": {"target": "T3, BRD4", "test": "Western blot BRD4 degradation in MM.1S cells", "assay_type": "cell-based", "set-up": "endogenous in cells", "excerpt": "as §1\nThe mixed suspension/adherent cells were subcultured at a 1:10 dilution by decanting suspended cells and dissociating adherent cells from plates in 0.25% trypsin/EDTA (Gibco) with 2 min incubation times. Cell-line authenticity was verified using the short-tandem-repeat (STR)-profiling service provided by ATCC.\nas §2"}, "BRD4 [10]": {"target": "T3, BRD4", "test": "Western blot BRD4 degradation in MV411 cells", "assay_type": "cell-based", "set-up": "endogenous in cells", "details": "6 hours, N = 1"}, "[11]": {"test": "Solubility observed in AlphaScreen assay", "details": "required increased DMSO (1% v/v) in assay"}, "BRD4 [12]": {"target": "T3, BRD4", "test": "Competition of MZ1-induced BRD4 degradation with pan-BD1 or pan-BD2 inhibitors", "assay_type": "cell-based", "set-up": "endogenous in cells; host or cells: HEK293T", "details": "competition with pan-BET degrader MZ1"}},
  "note": "Where two headings read alike, the source gives them in different places. Peptide text beside a SMILES is read from it. * marks the point of attachment. Cbz = O=C(OCc1ccccc1)*",
  "data": [
    {"smiles": "CC(=O)N[C@H](C(=O)N1C[C@H](O)C[C@H]1C(=O)NCc1ccc(-c2scnc2C)cc1)C(C)(C)SCCCCCCNC(=O)C[C@@H]1N=C(c2ccc(Cl)cc2)c2c(sc(C)c2C)-n2c(C)nnc21", "note": "[AT1]", "values": [
      {"measurement": "concentration of BRD2 upon BRD4 degradation", "setting": "BRD2 [1]", "value": "remain unchanged"},
      {"measurement": "concentration of BRD3 upon BRD4 degradation", "setting": "BRD3 [2]", "value": "remain unchanged"}
    ]},
    {"smiles": "Cc1ccc(C(C)C)cc1Oc1nccc(-c2c(-c3ccc(C(F)(F)F)cc3)ncn2C2CCN(CCOCCOCCNC(=O)CN(C)c3cccc4c3C(=O)N(C3CCC(=O)NC3=O)C4=O)CC2)n1", "note": "(centres unmarked) [Example 4]", "values": [
      {"measurement": "DC50", "setting": "BRD4 [3]", "value": 105, "unit": "nM"},
      {"measurement": "Dmax", "setting": "BRD4 [4]", "value": 84, "unit": "%"}
    ]},
    {"smiles": "Cc1ccc(C(C)C)cc1Oc1nccc(-c2c(-c3ccc(C(F)(F)F)cc3)ncn2C2CCN(CCOCCOCCNC(=O)CNc3cccc4c3C(=O)N(C3CCC(=O)NC3=O)C4=O)CC2)n1", "note": "(centres unmarked) [Example 5]", "values": [
      {"measurement": "DC50", "setting": "BRD4 [3]", "value": 290, "unit": "nM"},
      {"measurement": "Dmax", "setting": "BRD4 [4]", "value": 60, "unit": "%"}
    ]},
    {"smiles": "Cc1ccc(C(C)C)cc1Oc1nccc(-c2c(-c3ccc(C(F)(F)F)cc3)ncn2C2CCN(CCNC(=O)COc3cccc4c3C(=O)N(C3CCC(=O)NC3=O)C4=O)CC2)n1", "note": "(centres unmarked) [Example 6]", "values": [
      {"measurement": "DC50", "setting": "BRD4 [3]", "value": 810, "unit": "nM"},
      {"measurement": "Dmax", "setting": "BRD4 [4]", "value": 95, "unit": "%"}
    ]},
    {"smiles": "CC(C)C[C@@H](C=O)NC(=O)[C@H](CC(C)C)NC(=O)[C@H](CC(C)C)NC(=O)OCc1ccccc1", "note": "[MG-132] (Cbz-Leu-Leu-Leu-aldehyde)", "values": [
      {"measurement": "rescue of BRD4 degradation by dBRD4-BD1", "setting": "BRD4 [5]", "value": "rescue of BRD4 degradation was observed"}
    ]},
    {"smiles": "NS(=O)(=O)OC[C@@H]1C[C@@H](n2ccc3c(N[C@H]4CCc5ccccc54)ncnc32)C[C@@H]1O", "note": "[MLN4924]", "values": [
      {"measurement": "rescue of BRD4 degradation by dBRD4-BD1", "setting": "BRD4 [5]", "value": "rescue of BRD4 degradation was observed"}
    ]},
    {"smiles": "COC(=O)C[C@@H]1N=C(c2ccc(Cl)cc2)c2c(sc(C(=O)NCCCCCNc3cccc4c3C(=O)N(C3CCC(=O)NC3=O)C4=O)c2C)-n2c(C)nnc21", "note": "(some centres unmarked) [ZXH-3-26]", "values": [
      {"measurement": "concentration of BRD2 upon BRD4 degradation", "setting": "BRD2 [1]", "value": "remain unchanged"},
      {"measurement": "concentration of BRD3 upon BRD4 degradation", "setting": "BRD3 [2]", "value": "remain unchanged"}
    ]},
    {"smiles": "Cc1ccc(C(C)C)cc1Oc1nccc(-c2c(-c3ccc(C(F)(F)F)cc3)ncn2C2CCN(CCOCCOCCNC(=O)COc3cccc4c3C(=O)N(C3CCC(=O)NC3=O)C4=O)CC2)n1", "note": "(centres unmarked) [dBRD4-BD1]", "values": [
      {"measurement": "IC50", "setting": "9xHis-BRD4-BD1", "value": 1360, "unit": "nM"},
      {"measurement": "BRD2 level at concentrations where BRD4 was degraded", "setting": "BRD2 [6]", "value": "upregulated"},
      {"measurement": "degradation of BRD2", "setting": "BRD2 [6]; 24-hour treatment", "value": "not observed"},
      {"measurement": "BRD3 level at concentrations where BRD4 was degraded", "setting": "BRD3 [7]", "value": "upregulated"},
      {"measurement": "degradation of BRD3", "setting": "BRD3 [7]; 24-hour treatment", "value": "not observed"},
      {"measurement": "degradation of p38a", "setting": "p38a kinase", "value": "not observed"},
      {"measurement": "effect on cMyc expression", "setting": "cMyc", "value": "weaker effect on cMyc expression"},
      {"measurement": "ternary-complex formation by TR-FRET", "setting": "BRD4 [8]", "value": "moderate ternary-complex formation"},
      {"measurement": "cytotoxicity", "setting": "MM.1S cells", "value": "lower observed cytotoxicity"},
      {"measurement": "HEK293 (Dmax)", "setting": "BRD4 [3]", "value": 100, "unit": "%"},
      {"measurement": "DC50", "setting": "BRD4 [3]", "value": 500, "unit": "nM"},
      {"measurement": "BRD4 degradation Dmax", "setting": "BRD4 [9]; 24-hour treatment", "value": 23, "unit": "%"},
      {"measurement": "DC50", "setting": "BRD4 [9]; 24-hour treatment", "value": 280, "unit": "nM"},
      {"measurement": "concentration above which BRD4 degradation diminished (hook effect)", "setting": "BRD4 [9]; 24-hour treatment", "value": "> 5", "unit": "µM"},
      {"measurement": "time to maximal BRD4 degradation", "setting": "BRD4 [9]; time-course study at 5 μM", "value": 8, "unit": "h"},
      {"measurement": "DC50", "setting": "BRD4 [10]", "value": 14, "unit": "nM"},
      {"measurement": "MV411 (Dmax)", "setting": "BRD4 [10]", "value": 85, "unit": "%"},
      {"measurement": "solubility", "setting": "[11]", "value": "poor solubility"}
    ]},
    {"smiles": "CC(=O)Nc1c(F)cc(C(=O)N[C@H]2CC[C@H](O)CC2)cc1O[C@@H](C)c1ccccc1", "note": "[iBET-BD2]", "values": [
      {"measurement": "rescue of BRD4 degradation by dBRD4-BD1", "setting": "BRD4 [5]", "value": "no effect"},
      {"measurement": "prevention of MZ1-induced BRD4 degradation by competitor", "setting": "BRD4 [12]", "value": "neither BD1 nor BD2 inhibition was able to prevent BRD4 degradation"}
    ]}
  ]
}
